According to patent publication US20250367302A1, “SMALL MOLECULE DRUG-OLIGONUCLEOTIDE CONJUGATE AND USE THEREOF” (SHANGHAI JIAO TONG UNIVERSITY, priority 2022, published 2025):

Assays:
NFKBIZ mRNA [1] = experiment: NFKBIZ mRNA expression by RT-qPCR in LPS-stimulated HCECs; format: cell-based, human; details: LPS-stimulated (100 ng/mL) HCECs, 10 μM ASO or siRNA, without transfection reagent, 6 h + 48 h
Description: HCECs were inoculated in a 6-well plate at a density of 1×10^5 cells/well and cultured until adherence. The cells were then stimulated with 100 ng/mL lipopolysaccharide (LPS) overnight. After removing the supernatant, 1 mL of Opti-MEM medium containing ASONFKBIZ-h, ASONFKBIZ-h+Lipofectamine2000 (Lipo2000), and CsA-ASONFKBIZ-h (all containing 10 µM ASO) were added, respectively. Cells without any treatment were used as a blank reference (Mock). After incubation at 37° C. for 6 h, the cells were transferred into DMEM medium and incubated for another 48 h. The cells were collected and RNA was extracted for RT-qPCR to analyze the expression level of the NFKBIZ mRNA in HCECs, and experimental results were shown in FIG. 9. The expression level of NFKBIZ mRNA in HCECs after LPS stimulation was about 1.3 times that of normal cells. […] After adding CsA-ASONFKBIZ-h for co-incubation, the expression of NFKBIZ mRNA was reduced to about 0.8 times that of normal cells.
(§1) HCECs were inoculated in a 6-well plate at a density of 1×10^5 cells/well and cultured until adherence. The cells were then stimulated with 100 ng/mL LPS overnight. After removing the supernatant, 1 mL of Opti-MEM medium containing ASONFKBIZ-h+Lipo2000 complex and 2CsA-ASONFKBIZ-h nanomicelles (all containing 10 µM ASO) were added, respectively. After incubation at 37° C. for 6 h, the cells were transferred into DMEM medium and incubated for another 48 h. The cells were collected and RNA was extracted for RT-qPCR to analyze the expression level of the NFKBIZ mRNA in HCECs, and experimental results were shown in FIG. 12.
as §1, with “ng/ml” for “ng/mL”, “3CsA-ASONFKBIZ-h” for “2CsA-ASONFKBIZ-h”, “15.” for “12.”
HCECs were inoculated in a 6-well plate at a density of 1×10^5 cells/well and cultured until adherence. The cells were then stimulated with 100 ng/mL LPS overnight. 1 mL of Opti-MEM medium containing ASONFKBIZ-h+Lipo2000 complex and CsA3-ASONFKBIZ-h nanomicelles (all containing 10 µM ASO) were added, respectively. After incubation at […]. 37° C. for 6 h, the cells were transferred into DMEM medium and incubated for another 48 h. After collected and RNA was extracted for RT-qPCR to evaluate the expression level of NFKBIZ mRNA in HCECs, and the experimental results were shown in FIG. 23.
HCECs were inoculated in a 6-well plate at a density of 1×10^5 cells/well and cultured overnight until adherence. The cells were then stimulated with 100 ng/ml LPS for 12 h. After removing the supernatant, 1 mL of Opti-MEM medium containing siRNANFKBIZ-h+Lipo2000 complex and nCsA-siRNANFKBIZ-h (n=1, 2, 3) conjugates and nanomicelles (all containing 10 μM siRNA) were added, respectively. After incubation at 37° C. for 6 h, the cells were transferred into DMEM medium and incubated for another 48 h. The cells were collected and RNA was extracted for RT-qPCR to evaluate the expression of NFKBIZ mRNA in HCECs, and experimental results were shown in FIG. 27. […]

NFKBIZ mRNA [2] = experiment: NFKBIZ mRNA expression by RT-qPCR in IL-36-stimulated HaCaT cells; format: cell-based, human; details: IL-36-stimulated (100 ng/ml, 2 h) HaCaT cells, nanomicelles with 10 μM ASONFKBIZ-h, 6 h + 48 h
Description: HaCaT cells from human keratinocyte cell line were inoculated in a 6-well plate at a density of 1×10^5 cells/well and cultured until adherence. The cells were then stimulated with 100 ng/ml interleukin-36 (IL-36) for 2 h. After washing with 1×PBS buffer, 1 mL of Opti-MEM medium containing ASONFKBIZ-h+Lipo2000 complex and CsA3-ASONFKBIZ-h nanomicelles (all containing 10 μM ASONFKBIZ-h) were added, respectively. After incubation with HaCaT cells for 6 h, the cells were transferred into fresh DMEM medium, while cells without any treatment or stimulated with IL-36 alone were used as a control, all cells were incubated at 37° C. for 48 h. The cells were collected and RNA was extracted for RT-qPCR to analyze the expression level of the NFKBIZ mRNA in HaCaT cells, and experimental results were shown in FIG. 51.
HaCaT cells from human keratinocyte cell line were inoculated in a 6-well plate at a density of 1×10^5 cells/well and cultured until adherence. The cells were then stimulated with 100 ng/ml interleukin-36 (IL-36) for 2 h. After washing with 1×PBS buffer, 1 mL of Opti-MEM medium containing ASONFKBIZ-h+Lipo2000 complex and 10TA-ASONFKBIZ-h nanomicelles (all containing 10 μM ASONFKBIZ-h) were added, respectively. […]

CsA3-ASONFKBIZ-h: CsA trimer on tripropargyl linker at 3′ end of ASO targeting human NFKBIZ (SEQ ID NO: 7) (ATCAGACAACGAATCGGGC; 3'-NHS ASO with tripropargyl linker carrying three cyclosporin A, chemistry not given here, further chemistry not given here)
expression of NFKBIZ mRNA relative to normal cells (NFKBIZ mRNA [1]): about 0.5 times that of normal cells | NFKBIZ mRNA expression relative to normal cells (NFKBIZ mRNA [2]): about 0.8 times
